Source: US20100081825A1, “1-NAPHTHYL ALKYLPIPERIDINE DERIVATIVE” (Taisho Pharmaceutical Co Ltd, priority 2006, published 2010)
Where a name gives a salt, the structure may show the parent alone.

molecular target: T1, MCH1R (Homo sapiens, UniProt Q99705); assay: MCH1R calcium evaluation test (FDSS assay, inhibition of MCH-induced intracellular calcium increase); assay type: cell-based; conditions: cells stably expressing non-endogenous active MCH1R; 50 nM MCH; Fluo-4 calcium, FDSS6000
T1 construct: IC50; other: cells stably expressing non-endogenous active MCH1R; 50 nM MCH; Fluo-4 calcium, FDSS6000; list of compounds i
Excerpt: MCH1R Calcium Evaluation Test
An FDSS assay can measure the intracellular calcium concentration and can evaluate the Gq-coupled receptor activity using the calcium concentration as an index. For example, the assay can determine whether an analyte is an antagonist, an inverse agonist or an agonist for a Gq-coupled receptor. The FDSS6000™ system (Hamamatsu Photonics K.K.) is designed to perform evaluation based on functionality such as measurement of intracellular calcium for high-throughput screening. Intracellular calcium release by activation of a Gq-coupled receptor can be fluorometrically measured by incorporating a calcium indicator (such as Fluo4) into cells. On the other hand, the assay cannot measure the activation of Gi- and Go-coupled receptors, because the activation is not associated with calcium signaling pathways.
Intracellular fluorescence can be rapidly and successively measured in a 96-well microplate or a 384-well microplate using a fluorometric imaging plate reader system. FDSS6000™ can simultaneously measure fluorescence in all wells sensitively, accurately and by seconds. This system is ideal for functional analysis in cells such as monitoring of an intracellular calcium flow generated within several seconds after activation of a Gq-coupled receptor.
On the day before the test, cells stably expressing non-endogenous active MCH1R were seeded into a 96-well microplate at 3×10^4 cells per well. 100 μL per well of a medium (Dulbecco's modified Eagle medium containing 10% fetal bovine serum, 2 mM glutamine, 1 mM sodium pyruvate and 0.5 mg/mL G418, pH 7.4) was used for culture. On the day of the test, the medium was removed and an assay buffer {Hank's balanced salt solution containing 20 mM HEPES, 0.5 mM probenecid, 0.05 mg/mL amaranth and 0.2% bovine serum albumin (BSA), pH 7.4} containing 2 μM Fluo-4-AM and 0.04% Pluronic F127 was added at 100 μL per well, followed by incubation in a 5% CO2 incubator at 37° C. for one hour. Thereafter, the buffer was removed and an assay buffer containing each concentration of the test compound was newly added at 150 μL per well, followed by incubation in a 5% CO2 incubator at 37° C. for 30 minutes. An assay buffer containing each concentration of MCH was added at 50 μL per well, and transient changes in the intracellular calcium concentration induced by MCH were monitored using FDSS6000™ at Ex. 488 nm and Em. 530 nm for 180 seconds. In testing the antagonistic activity of the analyte, MCH was added to a final concentration of 50 nM. An inhibition curve was prepared with various concentrations of the analyte, and the concentration of the analyte inhibiting 50% of the increase in intracellular calcium when 50 nM MCH was added (IC50 value) was calculated using data analysis software Origin Ver. 6.

SMILES	IC50 [nM]
COc1cccc(C(=O)NC2CCN(Cc3ccc4ccc(COCCN(C)C)cc4c3)CC2)c1 [Example 37, N-{1-[(7-{[2-(dimethylamino)ethoxy]methyl}-2-naphthyl)methyl]piperidin-4-yl}-3-methoxybenzamide]	4.89
CNCCNCc1ccc2ccc(CN3CCC(NC(=O)c4cccc(OC)c4)CC3)cc2c1 [Example 67, 3-Methoxy-N-(1-{[7-({[2-(methylamino)ethyl]amino}methyl)-2-naphthyl]methyl}piperidin-4-yl)benzamide trihydrochloride]	6.51
COc1cccc(C(=O)NC2CCN(Cc3ccc4ccc(COCCN5CCCC5)cc4c3)CC2)c1 [Example 36, 3-Methoxy-N-[1-({7-[(2-pyrrolidin-1-ylethoxy)methyl]-2-naphthyl}methyl)piperidin-4-yl]benzamide]	6.11
CCOCc1ccc2ccc(CN3CCC(NC(=O)c4ccc(F)c(Cl)c4)CC3)cc2c1 [Example 6, 3-chloro-N-(1-{[7-(ethoxymethyl)-2-naphthyl]methyl}piperidin-4-yl)-4-fluorobenzamide]	3.54
COc1cccc(C(=O)NC2CCN(Cc3ccc4ccc(CCO)cc4c3)CC2)c1 [Example 120, N-(1-{[7-(2-hydroxyethyl)-2-naphthyl]methyl}piperidin-4-yl)-3-methoxybenzamide]	7.41
COCc1ccc2ccc(CN3CCC(NC(=O)c4cc(OC)cc(OC)c4)CC3)cc2c1 [Example 10, 3,5-Dimethoxy-N-(1-{[7-(methoxymethyl)-2-naphthyl]methyl}piperidin-4-yl)benzamide]	4.99
COc1cccc(C(=O)NC2CCN(Cc3ccc4ccc(CNCCN5CCCC5)cc4c3)CC2)c1 [Example 48, 3-Methoxy-N-{1-[(7-{[(2-pyrrolidin-1-ylethyl)amino]methyl}-2-naphthyl)methyl]piperidin-4-yl}benzamide]	9.68
COCc1ccc2ccc(CN3CCC(NC(=O)c4cccc(OC)c4)CC3)cc2c1 [Example 13, 3-Methoxy-N-(1-{[7-(methoxymethyl)-2-naphthyl]methyl}piperidin-4-yl)benzamide]	10.4
COc1cccc(C(=O)NC2CCN(Cc3ccc4ccc(CNCCN)cc4c3)CC2)c1 [Example 64, N-{1-[(7-{[(2-Aminoethyl)amino]methyl}-2-naphthyl)methyl]piperidin-4-yl}-3-methoxybenzamide trihydrochloride]	7.14
COCCOCc1ccc2ccc(CN3CCC(NC(=O)c4cccc(C(C)=O)c4)CC3)cc2c1 [Example 90, 3-Acetyl-N-[1-({7-[(2-methoxyethoxy)methyl]-2-naphthyl}methyl)piperidin-4-yl]benzamide]	7.69
COCCOCc1ccc2ccc(CN3CCC(NC(=O)c4cccc(OC)c4)CC3)cc2c1 [Example 26, 3-Methoxy-N-[1-({7-[(2-methoxyethoxy)methyl]-2-naphthyl}methyl)piperidin-4-yl]benzamide]	5.67
COc1cccc(C(=O)NC2CCN(Cc3ccc4ccc(CNCCN(C)C)cc4c3)CC2)c1 [Example 49, N-(1-{[7-({[2-(Dimethylamino)ethyl]amino}methyl)-2-naphthyl]methyl}piperidin-4-yl)-3-methoxybenzamide]	7.08
